Among the data in the supplement of paper PMC10307832 are relative viability values, retold here.

The first test concerns NCI-H2023. The test is described as follows: relative viability (nuclei count vs DMSO), 5 days (fraction); higher = more cells survive. To be noted: first compound 0.08 µM. The method, boiled down:
(§1)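 Dosing by pin tool came one day after lung cancer cell lines were seeded in 1536-well plates, using either one drug or a fixed anchor-drug dose plus five library-drug doses (not always all listed) in √10 steps. After 5 days, nuclei were counted on 4× images. Relative viability is treated-well nuclei count divided by vehicle-well nuclei count, and values are medians of duplicate plates.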
Take `CCCCCCCCCCCC1=C(O)C(=O)C=C(O)C1=O` [Embelin] + CC(=O)Nc1cccc(-n2c(=O)n(C3CC3)c(=O)c3c(Nc4ccc(I)cc4F)n(C)c(=O)c(C)c32)c1 [Trametinib] (partner 0.02 µM): the relative viability is 0.568.
Take `CCCCCCCCCCCC1=C(O)C(=O)C=C(O)C1=O` [Embelin] + Nc1ncn([C@H]2C[C@H](O)[C@@H](CO)O2)c(=O)n1 [Decitabine] (partner 2 µM): the relative viability was 0.249.
As for `CCCCCCCCCCCC1=C(O)C(=O)C=C(O)C1=O` [Embelin] + COc1cccc2cc(-c3nc([C@H]4CC[C@H](C(=O)O)CC4)n4ncnc(N)c34)[nH]c12 [OSI-027] (partner 0.5 µM), the relative viability came to 0.377.
Compound `CCCCCCCCCCCC1=C(O)C(=O)C=C(O)C1=O` [Embelin] + Nc1nc2[nH]cc(CCc3ccc(C(=O)N[C@@H](CCC(=O)O)C(=O)O)cc3)c2c(=O)[nH]1 [Pemetrexed] (partner 0.2 µM) showed a relative viability of 0.206.

The same test, now with this note: first compound 0.8 µM.
`CCCCCCCCCCCC1=C(O)C(=O)C=C(O)C1=O` [Embelin] + Cc1cc(Nc2cc(N3CCN(C)CC3)nc(Sc3ccc(NC(=O)C4CC4)cc3)n2)n[nH]1 [Tozasertib] (partner 0.1 µM) displayed a relative viability of 0.406.
`CCCCCCCCCCCC1=C(O)C(=O)C=C(O)C1=O` [Embelin] + CC(=O)Nc1cccc(-n2c(=O)n(C3CC3)c(=O)c3c(Nc4ccc(I)cc4F)n(C)c(=O)c(C)c32)c1 [Trametinib] (partner 0.02 µM) came in with a relative viability of 0.654.
Compound `CCCCCCCCCCCC1=C(O)C(=O)C=C(O)C1=O` [Embelin] + Nc1ncn([C@H]2C[C@H](O)[C@@H](CO)O2)c(=O)n1 [Decitabine] (partner 2 µM) had a relative viability of 0.234.
Same read-out and setting: to `CCCCCCCCCCCC1=C(O)C(=O)C=C(O)C1=O` [Embelin] + COc1cccc2cc(-c3nc([C@H]4CC[C@H](C(=O)O)CC4)n4ncnc(N)c34)[nH]c12 [OSI-027] (partner 0.5 µM) belongs 0.468; to `CCCCCCCCCCCC1=C(O)C(=O)C=C(O)C1=O` [Embelin] + Nc1nc2[nH]cc(CCc3ccc(C(=O)N[C@@H](CCC(=O)O)C(=O)O)cc3)c2c(=O)[nH]1 [Pemetrexed] (partner 0.2 µM), 0.244.

The test is the same for the next values; noted with them: first compound 2.53 µM.
`CCCCCCCCCCCC1=C(O)C(=O)C=C(O)C1=O` [Embelin] + Cc1cc(Nc2cc(N3CCN(C)CC3)nc(Sc3ccc(NC(=O)C4CC4)cc3)n2)n[nH]1 [Tozasertib] (partner 0.1 µM): the relative viability amounted to 0.369.
Still for that read-out and setting: to `CCCCCCCCCCCC1=C(O)C(=O)C=C(O)C1=O` [Embelin] + CC(=O)Nc1cccc(-n2c(=O)n(C3CC3)c(=O)c3c(Nc4ccc(I)cc4F)n(C)c(=O)c(C)c32)c1 [Trametinib] (partner 0.02 µM) belongs 0.613.
On the same count and under the same terms, to `CCCCCCCCCCCC1=C(O)C(=O)C=C(O)C1=O` [Embelin] + Nc1ncn([C@H]2C[C@H](O)[C@@H](CO)O2)c(=O)n1 [Decitabine] (partner 2 µM) belongs 0.247; to `CCCCCCCCCCCC1=C(O)C(=O)C=C(O)C1=O` [Embelin] + COc1cccc2cc(-c3nc([C@H]4CC[C@H](C(=O)O)CC4)n4ncnc(N)c34)[nH]c12 [OSI-027] (partner 0.5 µM), 0.385.
As for `CCCCCCCCCCCC1=C(O)C(=O)C=C(O)C1=O` [Embelin] + Nc1nc2[nH]cc(CCc3ccc(C(=O)N[C@@H](CCC(=O)O)C(=O)O)cc3)c2c(=O)[nH]1 [Pemetrexed] (partner 0.2 µM), the relative viability came out at 0.226.

The same test, now with this note: first compound 8 µM.
In turn, `CCCCCCCCCCCC1=C(O)C(=O)C=C(O)C1=O` [Embelin] + Cc1cc(Nc2cc(N3CCN(C)CC3)nc(Sc3ccc(NC(=O)C4CC4)cc3)n2)n[nH]1 [Tozasertib] (partner 0.1 µM) came in with a relative viability of 0.302.
The compound `CCCCCCCCCCCC1=C(O)C(=O)C=C(O)C1=O` [Embelin] + CC(=O)Nc1cccc(-n2c(=O)n(C3CC3)c(=O)c3c(Nc4ccc(I)cc4F)n(C)c(=O)c(C)c32)c1 [Trametinib] (partner 0.02 µM) gave a relative viability of 0.495.
Compound `CCCCCCCCCCCC1=C(O)C(=O)C=C(O)C1=O` [Embelin] + Nc1ncn([C@H]2C[C@H](O)[C@@H](CO)O2)c(=O)n1 [Decitabine] (partner 2 µM) gave a relative viability of 0.155.
In the case of `CCCCCCCCCCCC1=C(O)C(=O)C=C(O)C1=O` [Embelin] + COc1cccc2cc(-c3nc([C@H]4CC[C@H](C(=O)O)CC4)n4ncnc(N)c34)[nH]c12 [OSI-027] (partner 0.5 µM), the relative viability came to 0.398.
Compound `CCCCCCCCCCCC1=C(O)C(=O)C=C(O)C1=O` [Embelin] + Nc1nc2[nH]cc(CCc3ccc(C(=O)N[C@@H](CCC(=O)O)C(=O)O)cc3)c2c(=O)[nH]1 [Pemetrexed] (partner 0.2 µM) showed a relative viability of 0.249.

The next test relates to NCI-H1395. The description is as above. To be noted: first compound 0.08 µM. In short, it runs like this: as §1
As to `CCCCCCCCCCCC1=C(O)C(=O)C=C(O)C1=O` [Embelin] + Cc1cc(Nc2cc(N3CCN(C)CC3)nc(Sc3ccc(NC(=O)C4CC4)cc3)n2)n[nH]1 [Tozasertib] (partner 0.1 µM), the relative viability worked out at 0.766.
In the case of `CCCCCCCCCCCC1=C(O)C(=O)C=C(O)C1=O` [Embelin] + CC(=O)Nc1cccc(-n2c(=O)n(C3CC3)c(=O)c3c(Nc4ccc(I)cc4F)n(C)c(=O)c(C)c32)c1 [Trametinib] (partner 0.02 µM), the relative viability stood at 0.996.
Still for that read-out and setting: to `CCCCCCCCCCCC1=C(O)C(=O)C=C(O)C1=O` [Embelin] + Nc1ncn([C@H]2C[C@H](O)[C@@H](CO)O2)c(=O)n1 [Decitabine] (partner 2 µM) belongs 0.712; to `CCCCCCCCCCCC1=C(O)C(=O)C=C(O)C1=O` [Embelin] + COc1cccc2cc(-c3nc([C@H]4CC[C@H](C(=O)O)CC4)n4ncnc(N)c34)[nH]c12 [OSI-027] (partner 0.5 µM), 0.657; to `CCCCCCCCCCCC1=C(O)C(=O)C=C(O)C1=O` [Embelin] + Nc1nc2[nH]cc(CCc3ccc(C(=O)N[C@@H](CCC(=O)O)C(=O)O)cc3)c2c(=O)[nH]1 [Pemetrexed] (partner 0.2 µM), 0.828.

The test is the same for the next values; noted with them: first compound 0.8 µM.
Turning to `CCCCCCCCCCCC1=C(O)C(=O)C=C(O)C1=O` [Embelin] + Cc1cc(Nc2cc(N3CCN(C)CC3)nc(Sc3ccc(NC(=O)C4CC4)cc3)n2)n[nH]1 [Tozasertib] (partner 0.1 µM), the relative viability stood at 0.725.
On the same count and under the same terms, to `CCCCCCCCCCCC1=C(O)C(=O)C=C(O)C1=O` [Embelin] + CC(=O)Nc1cccc(-n2c(=O)n(C3CC3)c(=O)c3c(Nc4ccc(I)cc4F)n(C)c(=O)c(C)c32)c1 [Trametinib] (partner 0.02 µM) belongs 1.14.
Compound `CCCCCCCCCCCC1=C(O)C(=O)C=C(O)C1=O` [Embelin] + Nc1ncn([C@H]2C[C@H](O)[C@@H](CO)O2)c(=O)n1 [Decitabine] (partner 2 µM) registered a relative viability of 0.872.
Same read-out and setting: to `CCCCCCCCCCCC1=C(O)C(=O)C=C(O)C1=O` [Embelin] + COc1cccc2cc(-c3nc([C@H]4CC[C@H](C(=O)O)CC4)n4ncnc(N)c34)[nH]c12 [OSI-027] (partner 0.5 µM) belongs 0.702; to `CCCCCCCCCCCC1=C(O)C(=O)C=C(O)C1=O` [Embelin] + Nc1nc2[nH]cc(CCc3ccc(C(=O)N[C@@H](CCC(=O)O)C(=O)O)cc3)c2c(=O)[nH]1 [Pemetrexed] (partner 0.2 µM), 1.03.
